Test system: Erysiphe [syn. Blumeria] graminis forma specialis. tritici
Experiment: Activity against mildew of wheat (protective spray test on potted wheat seedlings)
Format: in vivo
Conditions: wheat seedlings cv. Kanzler, rated after 7 days
Protocol: The active compounds, separately or together, were formulated as a 10% emulsion in a mixture of 63% by weight of cyclohexanone and 27% by weight of emulsifier, and diluted with water to the desired concentration.
Evaluation was carried out by determining the infected leaf areas in percent. These percentages were converted into efficacies. The efficacy (w) was calculated as follows using Abbot's formula: [formula] • α corresponds to the fungal infection of the treated plants in % and • β corresponds to the fungal infection of the untreated (control) plants in %
An efficacy of 0 means that the infection level of the treated plants corresponds to that of the untreated control plants; an efficacy of 100 means that the treated plants were not infected.
The expected efficacies of the mixtures of the active compounds were determined using Colby's formula [R. S. Colby, Weeds 15, 20-22 (1967)] and compared with the observed efficacies. E =x+y−x·y/100 Colby's formula: • E expected efficacy, expressed in % of the untreated control, when using the mixture of the active compounds A and B at the concentrations a and b • x efficacy, expressed in % of the untreated control, when using active compound A at a concentration of a • y efficacy, expressed in % of the untreated control, when using active compound B at a concentration of b
Activity Against Mildew of Wheat Caused by Erysiphe [syn. Blumeria] graminis forma Specialis. tritici
Leaves of wheat seedlings of the cultivar “Kanzler” grown in pots were sprayed to runoff point with an aqueous preparation of active compound which had been prepared from a stock solution comprising 10% of active compound, 85% of cyclohexanone and 5% of emulsifier. 24 hours after the spray coating had dried on, the plants were dusted with spores of mildew of wheat (Erysiphe [syn. Blumeria] graminis forma specialis. tritici). The test plants were then placed in a greenhouse at 20-24° C. and 60-90% relative atmospheric humidity. After 7 days, the extent of the mildew development was determined visually in % infection of the entire leaf area.
The visually determined values for the percentage of infected leaf areas were converted into efficacies in % of the untreated control. An efficacy of 0 means the same degree of infection as in the untreated control, an efficacy of 100 means 0% infection. The expected efficacies for combinations of active compounds were determined using Colby's formula (Colby, S. R. (Calculating synergistic and antagonistic responses of herbicide Combinations”, Weeds, 15, p. 20-22, 1967) and compared to the observed effacacies.

[1] = 1 ppm in the spray liquor, inoculated 24 h after spraying

Measured: Efficacy in % of the untreated control

CO/N=C(/C(=O)OC)c1ccccc1COc1ccccc1C [kresoxim-methyl]
0%: 0.06 ppm in the spray liquor | 0.25 ppm in the spray liquor | [1]

CO/C=C(/C(=O)OC)c1ccccc1Oc1cc(Oc2ccccc2C#N)ncn1 [azoxystrobin]
0%: 0.015 ppm in the spray liquor | 0.25 ppm in the spray liquor | [1]

COC(=O)N(OC)c1ccccc1COc1ccn(-c2ccc(Cl)cc2)n1 [pyraclostrobin]
0%: 0.06 ppm in the spray liquor | 0.25 ppm in the spray liquor | [1]
